Reference: patent US20060116401A1, “Antibacterial compounds” (AstraZeneca AB, priority 2002, published 2006)
≈ marks a conversion by molar mass, not a printed value.

Legend:
Format in all cases: cell-based
[1] = system: Staphylococcus aureus MSQS (methicillin sensitive and quinolone sensitive); assay: MIC, agar dilution, staphylococci (MSQS strain); details: 10^4 CFU/spot, 37° C., 24 hours
Description: (§1) The following results were obtained on a standard in-vitro test system The activity is described in terms of the minimum inhibitory concentration (MIC) determined by the agar-dilution technique with an inoculum size of 10^4 CFU/spot. Typically, compounds are active in the range 0.01 to 256 μg/ml.
(§2) Staphylococci were tested on agar, using an inoculum of 10^4 CFU/spot and an incubation temperature of 37° C. for 24 hours—standard test conditions for the expression of methicillin resistance.

[2] = system: Staphylococcus aureus MRQR (methicillin resistant and quinolone resistant); assay: MIC, agar dilution, staphylococci (MRQR strain); details: 10^4 CFU/spot, 37° C., 24 hours
Description: as §1, §2

Streptococcus pneumoniae = assay: MIC, agar with 5% defibrinated horse blood, streptococci; details: agar + 5% horse blood, 10^4 CFU/spot, 37° C., 5% carbon dioxide, 48 hours
Description: as §1
(§3) Streptococci and enterococci were tested on agar supplemented with 5% defibrinated horse blood, an inoculum of 10^4 CFU/spot and an incubation temperature of 37° C. in an atmosphere of 5% carbon dioxide for 48 hours—blood is required for the growth of some of the test organisms. Fastidious Gram negative organisms were tested in Mueller-Hinton broth, supplemented with hemin and NAD, grown aerobically for 24 hours at 37° C., and with an innoculum of 5×10^4 CPU/well.

Haemophilus influenzae = assay: MIC, fastidious Gram negative organisms in Mueller-Hinton broth; details: Mueller-Hinton broth with hemin and NAD, aerobic, 24 hours, 37° C.
Description: as §1, §3

Moraxella catarrhalis = assay: as above; details: Mueller-Hinton broth with hemin and NAD, aerobic, 24 hours, 37° C.
Description: as §1, §3

Enterococcus faecium = assay: MIC, agar with 5% defibrinated horse blood, enterococci; details: agar + 5% horse blood, 10^4 CFU/spot, 37° C., 5% carbon dioxide, 48 hours
Description: as §1, §3

[3] = system: Linezolid Resistant Streptococcus pneumoniae; assay: MIC, agar with 5% defibrinated horse blood, linezolid resistant streptococci; details: agar + 5% horse blood, 10^4 CFU/spot, 37° C., 5% carbon dioxide, 48 hours
Description: as §1, §3

- MIC [1]: 0.5 µg/mL (≈ 1.1 µM)
- MIC [2]: 0.5 µg/mL (≈ 1.1 µM)
- MIC (Streptococcus pneumoniae): 0.13 µg/mL
- MIC (Haemophilus influenzae): 4 µg/mL (≈ 8.78 µM)
- MIC (Moraxella catarrhalis): 0.5 µg/mL (≈ 1.1 µM)
- MIC (Enterococcus faecium): 0.5 µg/mL
- MIC [3]: 1 µg/mL
Compound: O=C1O[C@@H](Cn2ccnn2)CN1c1ccc(-c2ccc(C3=NOC(CO)C3)c(F)c2)c(F)c1 (stereo partly drawn) [Example 4, (5R)-3-{2,3′-Difluoro-4′-[5-(hydroxymethyl)-4,5-dihydroisoxazol-3-yl]-1,1′-biphenyl-4-yl}-5-(1H-1,2,3-triazol-1-ylmethyl)-1,3-oxazolidin-2-one]
